Measured values as given in PubChem BioAssay AID179 (DTP/NCI, 2004).
The source made the active and inactive calls.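 Rule for the calls: active = compounds giving half or more protection of infected cells from virus-caused growth loss, again on retest; inactive = the rest.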

System: CEM cells HIV-1 protection, formazan growth assay
Experiment: NCI AIDS Antiviral Assay
Settings: for IC50: measured here: growth of uninfected CEM cells
Procedure, shortened: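 CEM (human) cells, HIV-1 infected vs uninfected, 5-point dosing, formazan growth read-out. Retest threshold 50% protection.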

SMILES | EC50 [µM] | IC50 [µM] | outcome
Cc1cc(CC(O)c2ccc(Cl)c(Cl)c2)nc(=O)[nH]1 (stereo not drawn) | > 9.12 | > 9.12 | –
CNC1=C2NC(=O)/C(C)=C\C=C\C(C)C(O)C(C)C(O)C(C)C(OC(C)=O)C(C)C(OC)/C=C/OC3(C)Oc4c(C)c(O)c(c(c4C3=O)C1=O)C2=O (stereo not drawn) | > 200 | 3.8 | –
Cn1cc(NC(=O)c2cc(NC(=O)c3cc(NC(=O)c4ccc(C(=O)Nc5cn(C)c(C(=O)Nc6cn(C)c(C(=O)Nc7cn(C)c(C(=O)NCCC(=N)N)n7)n6)n5)cc4)cn3C)cn2C)cc1C(=O)NCCC(=N)N | > 33.1 | 6.61 | –
COCO[C@@H]1C[C@H]2C(=O)N(COC)c3ccccc3C(=O)N2C1 | > 200 | > 200 | –
CC(=O)c1ccc2c(c1)NC(=O)CC(C)N2 (stereo not drawn) | > 200 | > 200 | –
N#C/C(=C\c1ccc(-c2ccccc2)cc1)c1ccc([N+](=O)[O-])cc1 | > 200 | > 200 | –
CCOC(=O)C(C)(C)Oc1ccc2c(=O)cc(-c3ccccc3)oc2c1 | > 53.7 | 36.3 | –
Cc1[nH]c2ccccc2c1-c1n[nH]c(=O)c2ccccc12 | – | – | inactive
CO[C@H]1C[C@H](n2cc(C)c(=O)[nH]c2=O)O[C@@H]1CO | > 200 | > 200 | –
O=C(CC1=NC2NN(c3ccccc3)C(=O)C2=C1CC(=O)c1cccc([N+](=O)[O-])c1)c1cccc([N+](=O)[O-])c1 (stereo not drawn) | > 129 | > 129 | –
Cc1c(C(=O)O)n(C)c(=O)n(C)c1=O | – | – | inactive
Nc1c(Br)cc(-c2cc(Br)c(N)c(Br)c2)cc1Br | > 200 | 138 | –
Cc1cn(C2OC(COC(=O)c3ccccc3)C(OC(=O)c3ccccc3)C2I)c(=O)[nH]c1=O (stereo not drawn) | > 200 | 37.2 | –
COc1cc2c(cc1O)C=NCC2 | – | – | inactive
Cc1csc(NNC(=O)Nc2ccccc2)n1 | > 129 | 43.7 | –
CN(C)CCSc1nccc(-c2ccc(-c3ccnc(SCCN(C)C)n3)s2)n1 | > 102 | 0.182 | –
COC1(OC)CC2C(=O)N(Cc3ccccc3)C1C=C2S(=O)(=O)c1ccccc1 (stereo not drawn) | – | – | inactive
Cc1[nH]nc(-c2ccon2)c1N=O | > 200 | 8.91 | –
COc1c(Br)cc(Br)c(OC)c1-c1[nH]c(Br)c(Br)c1Br | > 16.6 | > 16.6 | –
CC1=NN(C(=O)CC(=O)Nc2cccc(C)c2)C(=O)C1N=Nc1ccc(S(=O)(=O)c2ccc(N=NC3C(=O)N(C(=O)CC(=O)Nc4cccc(C)c4)N=C3C)cc2)cc1 (stereo not drawn) | > 50.1 | > 50.1 | –
CC1(C)OC(CCO)CN1C(=O)OCc1ccccc1 (stereo not drawn) | 195 | > 200 | –

SMILES | EC50 [µM] | IC50 [µM] | outcome
O=c1[nH]cnc2c(NC3OC(CO)C(O)C3O)cccc12 (stereo not drawn) | – | – | inactive
O=C(C[n+]1ccccc1)N/N=C(/CCC(=O)N(Cc1ccccc1)Cc1ccccc1)CC(=O)c1ccccc1 | > 437 | > 437 | –
Clc1ccc2sc(-n3ccc4ccccc43)nc2c1 | > 200 | 170 | –
O=S(=O)(/C=C/C(=C/c1ccccc1)S(=O)(=O)c1ccccc1)c1ccccc1 | – | – | inactive
O=c1[nH]c(=O)n(COCCOCc2ccccc2)cc1Nc1ccccc1 | > 200 | 56.2 | –
O=c1c(C=Nc2ccc([N+](=O)[O-])cc2)c(O)n(-c2ccccc2)c(=O)n1-c1ccccc1 | > 200 | 21.4 | –
O=C1NC(=O)c2c3ccc(c21)CCc1ccc(c2c1C(=O)NC2=O)CC3 | > 15.1 | > 15.1 | –
O=C1CSC2=NC3=C(CSC/C3=C\c3ccccc3)C(c3ccccc3)N12 (stereo not drawn) | > 200 | 43.7 | –
Cc1ccc(/C=C/c2nnc(N/N=C/c3ccc4c(c3)OCO4)[nH]c2=O)cc1 | > 200 | 95.5 | –
CC(=O)OCC1OC(N2C(=S)N[C@H]([C@@H](O)[C@H](O)[C@H](O)CO)[C@H]2O)C(OC(C)=O)C(OC(C)=O)C1OC(C)=O (stereo partly drawn) | > 200 | > 200 | –
Cc1ccc2c(c1)NC(=O)C(N=[N+]=[N-])(c1ccccc1)C2=O (stereo not drawn) | > 200 | 49 | –
CCOC(=O)C1C(C)C2(C#N)C(=N)OC1(C)C2(C#N)C#N (stereo not drawn) | > 200 | 83.2 | –
CCOC(=O)c1ccc(CSc2ccc(Cl)cc2)cc1 | > 4.68 | > 4.68 | –
Nc1ccccc1/C=C1/Sc2cc[nH]c2C1=O | > 63.1 | > 63.1 | –
N#Cc1c(NC(=S)NC(=O)c2ccccc2)nc2c(c1-c1ccccc1)CCCC2 | > 200 | 141 | –
COc1cc2c(o1)C(=O)N1CCc3c([nH]c4ccccc34)C21 (stereo not drawn) | > 115 | 64.6 | –
CC1(C)CNCC(C)(OCc2ccccc2)C(=O)NC(C)(C)CNCC(C)(OCc2ccccc2)C(=O)N1 (stereo not drawn) | 3.8 | 24.5 | –
C=C1CN(C(=O)c2cc3cc(OC)c(OC)c(OC)c3[nH]2)c2cc([N+](=O)[O-])ccc21 | 26.9 | > 200 | –
O=C(CCl)N1CCN(C(c2ccccc2)c2ccccc2)CC1 | > 79.4 | 3.72 | –
O=C1C2CC3OC3CC2C(=O)N1CCN1C(=O)C2CC3OC3CC2C1=O (stereo not drawn) | > 10.5 | > 10.5 | –
OCCN1OCCCC1c1ccccc1 (stereo not drawn) | > 1200 | > 1200 | –
